Source: ChEMBL document CHEMBL3580565, “Synthesis and Biological Evaluation of Cyclopentaquinoline Derivatives as Nonsteroidal Glucocorticoid Receptor Antagonists” (J Med Chem, 2015)

How the values were obtained:
Glucocorticoid receptor [1] = molecular target: T1, Glucocorticoid receptor (Homo sapiens, UniProt P04150); test: Displacement of [3H]-dexamethasone from cytosolic fraction of human recombinant glucocorticoid receptor by scintillation counting analysis
T1 sequence (P04150 whole entry): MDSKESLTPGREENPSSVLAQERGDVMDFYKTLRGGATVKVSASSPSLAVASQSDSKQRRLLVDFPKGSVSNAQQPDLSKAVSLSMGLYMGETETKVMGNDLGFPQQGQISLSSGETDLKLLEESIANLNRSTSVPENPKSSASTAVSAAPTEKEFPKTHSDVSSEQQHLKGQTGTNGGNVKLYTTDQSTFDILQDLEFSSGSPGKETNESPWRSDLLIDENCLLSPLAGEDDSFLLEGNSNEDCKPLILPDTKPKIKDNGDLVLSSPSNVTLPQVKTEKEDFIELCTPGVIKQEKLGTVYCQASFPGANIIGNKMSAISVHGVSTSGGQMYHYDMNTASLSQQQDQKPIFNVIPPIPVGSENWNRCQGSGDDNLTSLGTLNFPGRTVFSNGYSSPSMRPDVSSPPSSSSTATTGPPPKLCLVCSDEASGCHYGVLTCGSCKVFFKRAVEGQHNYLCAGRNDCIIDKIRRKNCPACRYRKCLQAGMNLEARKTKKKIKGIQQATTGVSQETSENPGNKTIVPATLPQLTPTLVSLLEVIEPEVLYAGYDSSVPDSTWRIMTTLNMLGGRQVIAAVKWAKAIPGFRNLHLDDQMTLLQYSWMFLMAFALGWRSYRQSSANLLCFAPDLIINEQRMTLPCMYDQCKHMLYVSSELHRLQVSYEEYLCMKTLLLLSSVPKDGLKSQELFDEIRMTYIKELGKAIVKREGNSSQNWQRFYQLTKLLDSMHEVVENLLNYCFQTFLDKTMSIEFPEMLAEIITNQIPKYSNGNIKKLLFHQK

Glucocorticoid receptor [2] = molecular target: T1, Glucocorticoid receptor; test: Antagonist activity at human glucocorticoid receptor transfected in CHOK1 cells assessed as inhibition of dexamethasone-induced receptor transcriptional activity after 6 hrs by luciferase reporter gene assay; format: cell-based, CHO-K1
Progesterone receptor = molecular target: T2, Progesterone receptor (Homo sapiens, UniProt P06401); test: Displacement of [3H]-progesterone from cytosolic fraction of human recombinant progesterone-B receptor by scintillation counting analysis
T2 sequence (P06401 whole entry): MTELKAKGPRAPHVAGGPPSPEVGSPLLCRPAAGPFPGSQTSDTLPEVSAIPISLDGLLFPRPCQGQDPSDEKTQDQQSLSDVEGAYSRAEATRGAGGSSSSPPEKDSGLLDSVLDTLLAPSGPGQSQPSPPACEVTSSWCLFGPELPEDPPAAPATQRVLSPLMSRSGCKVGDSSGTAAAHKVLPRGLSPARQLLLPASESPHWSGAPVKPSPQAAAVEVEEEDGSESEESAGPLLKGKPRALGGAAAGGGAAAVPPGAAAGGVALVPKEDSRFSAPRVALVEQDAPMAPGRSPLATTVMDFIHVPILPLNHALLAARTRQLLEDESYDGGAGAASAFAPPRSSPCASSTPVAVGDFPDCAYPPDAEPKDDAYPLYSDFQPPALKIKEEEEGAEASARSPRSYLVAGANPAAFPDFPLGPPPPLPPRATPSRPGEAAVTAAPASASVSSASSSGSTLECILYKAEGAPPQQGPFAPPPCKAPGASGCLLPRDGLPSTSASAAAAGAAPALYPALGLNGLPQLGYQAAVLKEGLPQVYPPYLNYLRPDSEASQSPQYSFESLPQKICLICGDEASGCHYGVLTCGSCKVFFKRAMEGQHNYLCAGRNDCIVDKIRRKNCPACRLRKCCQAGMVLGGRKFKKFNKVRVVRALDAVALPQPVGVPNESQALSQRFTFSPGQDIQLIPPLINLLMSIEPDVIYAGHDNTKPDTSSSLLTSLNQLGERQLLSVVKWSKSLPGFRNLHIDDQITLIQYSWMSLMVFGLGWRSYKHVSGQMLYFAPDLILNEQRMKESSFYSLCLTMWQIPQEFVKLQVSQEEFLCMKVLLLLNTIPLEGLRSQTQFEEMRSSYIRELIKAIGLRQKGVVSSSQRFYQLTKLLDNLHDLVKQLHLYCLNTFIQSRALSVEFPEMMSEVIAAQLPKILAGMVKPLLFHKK

[3] = molecular target: T3, Mineralocorticoid receptor (Homo sapiens, UniProt P08235); test: Displacement of [3H]-aldosterone from cytosolic fraction of human recombinant mineralocorticoid receptor by scintillation counting analysis
T3 sequence (P08235 whole entry): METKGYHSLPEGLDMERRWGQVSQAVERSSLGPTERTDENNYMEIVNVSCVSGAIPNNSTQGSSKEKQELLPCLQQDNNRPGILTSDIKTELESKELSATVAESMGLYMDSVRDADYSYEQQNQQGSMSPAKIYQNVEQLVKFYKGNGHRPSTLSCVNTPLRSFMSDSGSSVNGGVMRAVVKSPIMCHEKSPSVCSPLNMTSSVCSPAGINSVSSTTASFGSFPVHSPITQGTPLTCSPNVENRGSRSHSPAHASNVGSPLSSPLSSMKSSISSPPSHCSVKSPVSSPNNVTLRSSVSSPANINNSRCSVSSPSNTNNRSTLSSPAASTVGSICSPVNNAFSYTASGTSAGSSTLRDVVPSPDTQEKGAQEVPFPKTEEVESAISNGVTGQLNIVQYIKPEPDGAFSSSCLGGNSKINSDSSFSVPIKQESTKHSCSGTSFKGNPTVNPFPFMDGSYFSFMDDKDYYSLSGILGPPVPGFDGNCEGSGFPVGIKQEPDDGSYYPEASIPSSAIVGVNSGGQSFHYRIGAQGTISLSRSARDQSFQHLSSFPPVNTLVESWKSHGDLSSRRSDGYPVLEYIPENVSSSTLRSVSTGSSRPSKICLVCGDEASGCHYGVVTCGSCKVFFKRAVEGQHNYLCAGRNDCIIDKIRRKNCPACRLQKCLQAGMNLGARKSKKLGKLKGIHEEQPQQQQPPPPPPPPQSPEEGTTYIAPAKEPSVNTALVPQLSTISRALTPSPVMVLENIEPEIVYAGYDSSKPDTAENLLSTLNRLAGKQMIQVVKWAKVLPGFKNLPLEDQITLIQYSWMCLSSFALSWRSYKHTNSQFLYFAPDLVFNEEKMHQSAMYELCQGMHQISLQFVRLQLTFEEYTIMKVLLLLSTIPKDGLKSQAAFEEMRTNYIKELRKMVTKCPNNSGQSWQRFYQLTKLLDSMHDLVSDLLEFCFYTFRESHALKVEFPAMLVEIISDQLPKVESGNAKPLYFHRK

Rattus norvegicus [4] = test: Antidepressant-like activity in Wistar rat assessed as immobility time at 10 mg/kg, po administered at 1, 5, 23.5 hrs prior to testing measured for 5 mins by forced swimming test (reference value: 211.3 to 232.2 secs); format: functional
Rattus norvegicus [5] = test: Antidepressant-like activity in Wistar rat assessed as immobility time at 30 mg/kg, po administered at 1, 5, 23.5 hrs prior to testing measured for 5 mins by forced swimming test (reference value: 211.3 to 232.2 secs); format: functional
Rattus norvegicus [6] = test: Antidepressant-like activity in Wistar rat assessed as decrease in immobility time at 10 mg/kg, po administered at 1, 5, 23.5 hrs prior to testing measured for 5 mins by forced swimming test relative to vehicle-treated control; format: functional; design: scale not given: the % may be the effect or the level left
Rattus norvegicus [7] = test: Antidepressant-like activity in Wistar rat assessed as decrease in immobility time at 30 mg/kg, po administered at 1, 5, 23.5 hrs prior to testing measured for 5 mins by forced swimming test relative to vehicle-treated control; format: functional; design: scale not given: the % may be the effect or the level left

Cc1cn(C)c(-c2cc3c(c4c2CCC4)NC(C)(C)C(=O)C3(C)C)n1 was tested. Which Ki (Glucocorticoid receptor [1]) did it give?
The Ki was over 384 nM.

Which IC50 (Glucocorticoid receptor [2]) does the source give for CC1(C)Nc2c(cc(-c3ccnc4ncccc34)c3c2CCC3)C(C)(C)C1=O here?
Its IC50 is 53 nM.

Cc1noc(C)c1-c1cc2c(cc1Cl)NC(C)(C)C(=O)C2(C)C was tested. Which Ki (Glucocorticoid receptor [1]) did it give?
Its Ki is 151 nM.

What about the Ki (Progesterone receptor) of the same compound?
Its Ki is 403 nM.

What about the IC50 (Glucocorticoid receptor [2]) of the same compound?
The IC50 was under 30 nM.

And the Ki [3]?
Its Ki is over 3000 nM.

With CC1(C)Nc2c(cc(-c3cccn4cnnc34)c3c2CCC3)C(C)(C)C1=O as the compound, how does the Ki (Glucocorticoid receptor [1]) read?
The Ki was over 384 nM.

What does the source list for Cc1cnn(C)c1-c1cc2c(c3c1CCC3)NC(C)(C)C(=O)C2(C)C?
Ki (Glucocorticoid receptor [1]): 28 nM; Ki (Progesterone receptor): > 1250 nM; IC50 (Glucocorticoid receptor [2]): 128 nM

Which results are given for Cc1noc(C)c1-c1ccc2c(c1)C(C)(C)C(=O)C(C)(C)N2?
Ki (Glucocorticoid receptor [1]): 16 nM; Ki (Progesterone receptor): 22 nM; IC50 (Glucocorticoid receptor [2]): 37 nM; Ki [3]: 337 nM

Which IC50 (Glucocorticoid receptor [2]) does the source give for CC1(C)Nc2c(cc(-c3cccc4nncn34)c3c2CCC3)C(C)(C)C1=O here?
Its IC50 is 91 nM.

Which Ki (Glucocorticoid receptor [1]) does the source give for CC1(C)Nc2c(cc(-c3cncc4nccn34)c3c2CCC3)C(C)(C)C1=O here?
The Ki was 46 nM.

What about the Ki (Progesterone receptor) of the same compound?
The Ki was over 1250 nM.

What about the IC50 (Glucocorticoid receptor [2]) of the same compound?
Its IC50 is 93 nM.

What about the Ki [3] of the same compound?
Its Ki is over 3330 nM.

For CC#C[C@]1(O)CC[C@H]2[C@@H]3CCC4=CC(=O)CCC4=C3[C@@H](c3ccc(N(C)C)cc3)C[C@@]21C [MIFEPRISTONE], which Time (Rattus norvegicus [4]) is on record?
The Time was 187 s.

What about the Time (Rattus norvegicus [5]) of the same compound?
The Time was 169.3 s.

And the Activity (Rattus norvegicus [6])?
The Activity was 88.5%.

And the Activity (Rattus norvegicus [7])?
Its Activity is 80.1%.

What does the source list for CC1(C)Nc2c(cc(-c3cccn4nccc34)c3c2CCC3)C(C)(C)C1=O?
Ki (Glucocorticoid receptor [1]): 35 nM; Ki (Progesterone receptor): 1190 nM; IC50 (Glucocorticoid receptor [2]): 84 nM

Which results are given for Cc1noc(C)c1-c1cc2c(c3c1CCCC3)NC(C)(C)C(=O)C2(C)C?
Ki (Glucocorticoid receptor [1]): 106 nM; IC50 (Glucocorticoid receptor [2]): 167 nM

How did the Ki (Glucocorticoid receptor [1]) turn out when COc1cc2c(cc1-c1c(C)noc1C)C(C)(C)C(=O)C(C)(C)N2 was run?
The Ki was 146 nM.

For Cc1noc(C)c1-c1cc2c(c3c1OCO3)NC(C)(C)C(=O)C2(C)C, which Ki (Progesterone receptor) is on record?
Its Ki is 2270 nM.

What about the IC50 (Glucocorticoid receptor [2]) of the same compound?
The IC50 was 77 nM.

And the Ki [3]?
The Ki was over 3000 nM.

How did the IC50 (Glucocorticoid receptor [2]) turn out when CC1(C)Nc2c(cc(-c3cccc4nccn34)c3c2CCC3)C(C)(C)C1=O was run?
The IC50 was 21 nM.

Which Ki (Glucocorticoid receptor [1]) does the source give for Cc1cc(-c2cc3c(c4c2CCC4)NC(C)(C)C(=O)C3(C)C)n(C)n1 here?
The Ki was over 384 nM.

With Cc1ncn(C)c1-c1cc2c(c3c1CCC3)NC(C)(C)C(=O)C2(C)C as the compound, how does the Ki (Glucocorticoid receptor [1]) read?
The Ki was 69 nM.

And the IC50 (Glucocorticoid receptor [2])?
The IC50 was 150 nM.

With CC1(C)Nc2c(cc(-c3ccnc4ccccc34)c3c2CCC3)C(C)(C)C1=O as the compound, how does the Ki (Glucocorticoid receptor [1]) read?
Its Ki is 151 nM.
